Measured values: patent US10905651B1, “Zeinmersome nanocarriers for drug delivery to the liver” (King Abdulaziz University, priority 2020, dated 2021)

Columns and labels:
[1] = In vitro diffusion studies (Franz diffusion cell); assay type: physicochemical; settings: within a 4-hour time period; 0.1 μm nylon membrane, buffer pH 7.0 with Tween 20 0.5% w/v
Protocol: The formula characterization was assessed by examining its diffusion pattern. An automated Franz diffusion cell apparatus (MicroettePlus; Hanson Research, Chatsworth, Calif., US) with a diffusion area of 1.76 cm^2 was utilized to examine the diffusion of OM from the prepared formula as described previously (Ahmed et al., 2019. Internat J Pharmaceu 570: 118657). A 0.1 μm nylon diffusion membrane and a buffer (pH 7.0) containing Tween 20 (0.5% w/v) were used, and this was stirred at 400 rpm. The aliquots were analyzed for OM concentration by HPLC as previously reported. The samples were collected at 0.5, 1, 2, 4, 8, 12, 24 and 48 h.

[2] = system: TAA-induced hepatic fibrosis rats; assay: Histopathology of hepatic sections in TAA-induced hepatic fibrosis rats; assay type: in vivo, rat; settings: two months, H&E
Protocol: (§1) Rats were given freshly prepared TAA (0.9% w/v in saline solution, 200 mg/kg, ip) twice weekly for eight weeks. A normal control (NC) group of rats (n=8) received injections of the vehicle twice weekly for eight weeks. The TAA-treated rats were randomly assigned to groups (n=8), including a test group for each dosage of a free drug (not encapsulated in ZMS), each dosage of zeinmersomes encapsulating the drug, and a positive control group (PC) having hepatic fibrosis but receiving a vehicle-only treatment instead of a drug treatment. Five groups of rats (n=8) were given freshly prepared TAA (0.9% w/v in saline solution, 200 mg/kg, ip) twice weekly for eight weeks and a normal control (NC) group received vehicle injections, as described in Example 4. The five TAA groups included a positive control group (PC, untreated) and four groups treated with low and high doses (2 and 4 mg/kg/day) of OM as raw drug (OL & OH, respectively) and the same low and high doses (2 and 4 mg/kg/day) of OM formulated as zeinmersomes (OLZMS & OHZMS, respectively). […] The plasma levels of ALT and AST and the homogenate levels of IL-6, reduced glutathione (GSH), TNF-α, malondialdehyde (MDA), and protein content were measured using ELISA kits (MyBioSource, Inc. CA, USA). In addition, the concentrations of olmesartan in plasma and liver homogenate were measured by HPLC/MS. […]

[3] = system: TAA-induced hepatic fibrosis rats; assay: Histopathology of duodenal sections and detection of sprue-like enteropathy in TAA-induced hepatic fibrosis rats; assay type: in vivo, rat; settings: two months
Protocol: as §1

[4] = cited from earlier work
fructose-fed rats = settings: 0.1 mg/kg/day; cited from earlier work
AT1 receptor = target: T1, AT1 receptor (Homo sapiens, UniProt P30556); settings: cited from earlier work
T1 sequence (P30556 1-359): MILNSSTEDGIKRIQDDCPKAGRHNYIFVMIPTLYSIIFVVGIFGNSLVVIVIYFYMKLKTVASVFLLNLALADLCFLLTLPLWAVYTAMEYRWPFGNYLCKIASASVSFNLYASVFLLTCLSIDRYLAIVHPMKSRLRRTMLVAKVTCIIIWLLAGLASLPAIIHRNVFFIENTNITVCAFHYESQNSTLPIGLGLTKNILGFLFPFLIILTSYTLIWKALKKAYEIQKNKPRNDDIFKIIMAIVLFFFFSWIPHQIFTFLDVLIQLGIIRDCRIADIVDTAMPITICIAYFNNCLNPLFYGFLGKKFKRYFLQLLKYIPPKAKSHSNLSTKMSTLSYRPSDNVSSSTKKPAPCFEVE

SMILES: CCCc1nc(C(C)(C)O)c(C(=O)OCc2oc(=O)oc2C)n1Cc1ccc(-c2ccccc2-c2nnn[nH]2)cc1 [OM, (5-methyl-2-oxo-1,3-dioxol-4-yl)methyl 5-(2-hydroxypropan-2-yl)-2-propyl-3-[[4-[2-(2H-tetrazol-5-yl)phenyl]phenyl]methyl]imidazole-4-carboxylate]
- diffusion of OM (percentage permeated) [1]: ~97.5±13.07%
- liver histopathology (fibrosis, inflammatory infiltration, hepatocytic degeneration) ([2]; high dose 4 mg/kg/day oral): mild improvement
- liver histopathology (fibrosis, inflammatory infiltration, hepatocytic degeneration) ([2]; low dose 2 mg/kg/day oral): no improvement
- duodenal histopathology (TAA-induced duodenal changes) ([3]; high dose 4 mg/kg/day oral): mild improvement
- duodenal histopathology (TAA-induced duodenal changes) ([3]; low dose 2 mg/kg/day oral): swollen distorted villi with damaged desquamated surface epithelium
- drug accumulation ([4]; OM once daily for 10 days): did not result in drug accumulation
- dose at which safe and well tolerated ([4]; Schwocho et al. 2001): up to 160 mg/day
- time for plasma olmesartan to approach steady state ([4]; treatment with OM): 5 days
- TNF-α level (fructose-fed rats): reduced
- cAMP level in the soleus muscle (fructose-fed rats): increased
- AT1 receptor blockade (AT1 receptor): competitive and selective AT1 receptor blocker
